In patent US20260130933A1, “PHARMACEUTICAL COMPOSITION FOR PREVENTION OR TREATMENT OF NEPHROPATHY AND/OR DIABETES MELLITUS, COMPRISING ENAVOGLIFLOZIN” (DAEWOONG PHARMACEUTICAL CO., LTD., priority 2022, published 2026):

Experiment: Example 2: phase 3 trial, enavogliflozin 0.3 mg vs dapagliflozin 10 mg once a day for 24 weeks added to metformin in patients with type 2 diabetes (same efficacy, exploratory and safety endpoints)
Format: in vivo, human
Conditions: for HDL-C change from baseline, ANCOVA LS mean (SE) / HDL-C change from baseline, Mean (SD) / HDL-C change from baseline, Median / HDL-C, Mean (SD) / HDL-C, Median / LDL-C change from baseline, ANCOVA LS mean (SE) / LDL-C change from baseline, Mean (SD) / LDL-C change from baseline, Median / LDL-C, Mean (SD) / LDL-C, Median / Triglycerides change from baseline, ANCOVA LS mean (SE) / Triglycerides change from baseline, Mean (SD) / Triglycerides change from baseline, Median / Triglycerides, Mean (SD) / Triglycerides, Median: mPPS1; for Diastolic blood pressure change from baseline, ANCOVA LS mean (SE) / Diastolic blood pressure change from baseline, Mean (SD) / Diastolic blood pressure change from baseline, Median / Diastolic blood pressure, Mean (SD) / Diastolic blood pressure, Median / Systolic blood pressure change from baseline, ANCOVA LS mean (SE) / Systolic blood pressure change from baseline, Mean (SD) / Systolic blood pressure change from baseline, Median / Systolic blood pressure, Mean (SD) / Systolic blood pressure, Median: mPPS2
Method: Subjects who met the inclusion/exclusion criteria were administered a placebo of the clinical trial drug under single-blind (subject blinding) conditions during a 2-week run-in period while continuing to receive metformin. […] The randomized subjects were administered two tablets of the clinical trial drug for each administration group once a day, and then visited the institution at weeks 6, 12, 18, and 24 during the 24-week administration period to conduct efficacy and safety evaluations.
• 1. Change in HbA1c at week 24 after administration of clinical trial drug compared to Visit 2 (randomization)
• 1. Change in HbA1c at each time point of weeks 6, 12, and 18 after administration of clinical trial drug compared to Visit 2 (randomization) • 2. Change in FPG at each time point of weeks 6, 12, 18, and 24 after administration of clinical trial drug compared to Visit 2 (randomization) • 3. Proportion of subjects achieving HbA1c<7% at each time point of weeks 6, 12, 18, and 24 after administration of clinical trial drug • 4. Proportion of subjects achieving HbA1c<6.5% at each time point of weeks 6, 12, 18, and 24 after administration of clinical trial drug • 5. Proportion of subjects achieving therapeutic response (HbA1c change (HbA1c at Visit 2-HbA1c at each evaluation time point)>0.5% or HbA1c<7% at each evaluation time point compared to Visit 2 (randomization)) at each time point of weeks 6, 12, 18 and 24 after administration of clinical trial drug
• 1. Change in fasting c-peptide at each time point of weeks 6, 12, 18, and 24 after administration of clinical trial drug compared to Visit 2 (randomization) • 2. Change in body weight at each time point of weeks 6, 12, 18, and 24 after administration of clinical trial drug compared to Visit 2 (randomization) • 3. Change in fasting lipid concentration (total cholesterol, LDL-C, HDL-C, and triglycerides) at each time point of weeks 6, 12, 18, and 24 after administration of clinical trial drug compared to Visit 2 (randomization) • 4. Changes in systolic or diastolic blood pressure at each time point of weeks 6, 12, 18, and 24 after administration of clinical trial drug compared to Visit 2 (randomization) • 5. Changes in β-cell function and insulin resistance measured by HOMA-β and HOMA-IR at each time point of weeks 6, 12, 18, and 24 after administration of clinical trial drug compared to Visit 2 (randomization) • 6. Changes in renal function-related indicators (UACR, UGCR) measured by UACR at each time point of weeks 6, 12, 18, and 24 after administration of clinical trial drug compared to Visit 2 (randomization) • 7. Changes in obesity-related indicators (adiponectin, leptin) at each time point of weeks 6, 12, 18, and 24 after administration of clinical trial drug compared to Visit 2 (randomization)

## CCOc1ccc(Cc2cc([C@@H]3O[C@H](CO)[C@@H](O)[C@H](O)[C@H]3O)ccc2Cl)cc1 [Dapagliflozin, reference compound]
Week 12, PPS
  Leptin change from baseline, ANCOVA LS mean (SE): -2.70 ng/mL
  Leptin change from baseline, Mean (SD): -2.70 ng/mL
  Leptin change from baseline, Median: -1.94 ng/mL
  Leptin, Mean (SD): 9.07 ng/mL
  Leptin, Median: 6.05 ng/mL
  UACR change from baseline, ANCOVA LS mean (SE): -3.38 g/kg
  UACR change from baseline, Mean (SD): -8.38 g/kg
  UACR change from baseline, Median: -1.80 g/kg
  UACR, Mean (SD): 49.42 g/kg
  UACR, Median: 11.95 g/kg
  UGCR change from baseline, ANCOVA LS mean (SE): 45.14 mg/mg
  UGCR change from baseline, Mean (SD): 43.59 mg/mg
  UGCR change from baseline, Median: 40.62 mg/mg
  UGCR, Mean (SD): 45.57 mg/mg
  UGCR, Median: 40.89 mg/mg
Week 12
  HDL-C change from baseline, ANCOVA LS mean (SE): 2.25(0.62) mg/dL
  HDL-C change from baseline, Mean (SD): 2.65(5.61) mg/dL
  HDL-C change from baseline, Median: 2.00 mg/dL
  HDL-C, Mean (SD): 49.29(9.21) mg/dL
  HDL-C, Median: 49.00 mg/dL
  LDL-C change from baseline, ANCOVA LS mean (SE): 0.56(1.73) mg/dL
  LDL-C change from baseline, Mean (SD): 1.33(16.02) mg/dL
  LDL-C change from baseline, Median: 2.00 mg/dL
  LDL-C, Mean (SD): 77.54(25.39) mg/dL
  LDL-C, Median: 77.00 mg/dL
  Triglycerides change from baseline, ANCOVA LS mean (SE): −10.10(4.92) mg/dL
  Triglycerides change from baseline, Mean (SD): −14.35(70.12) mg/dL
  Triglycerides change from baseline, Median: -6.00 mg/dL
  Triglycerides, Mean (SD): 119.06(50.67) mg/dL
  Triglycerides, Median: 104.00 mg/dL
  Diastolic blood pressure change from baseline, ANCOVA LS mean (SE): −4.35 mmHg
  Diastolic blood pressure change from baseline, Mean (SD): −4.06 mmHg
  Diastolic blood pressure change from baseline, Median: −3.00 mmHg
  Diastolic blood pressure, Mean (SD): 71.86 mmHg
  Diastolic blood pressure, Median: 72.00 mmHg
  Systolic blood pressure change from baseline, ANCOVA LS mean (SE): −6.12(1.07) mmHg
  Systolic blood pressure change from baseline, Mean (SD): −5.86(11.46) mmHg
  Systolic blood pressure change from baseline, Median: −6.00 mmHg
  Systolic blood pressure, Mean (SD): 121.46(12.64) mmHg
  Systolic blood pressure, Median: 123.00 mmHg
Week 18, PPS
  Adiponectin change from baseline, ANCOVA LS mean (SE): 1.29 µg/mL
  Adiponectin change from baseline, Mean (SD): 1.28 µg/mL
  Adiponectin change from baseline, Median: 0.73 ng/mL
  Adiponectin, Mean (SD): 7.98 µg/mL
  Adiponectin, Median: 7.08 µg/mL
  HOMA-IR change from baseline, ANCOVA LS mean (SE): −1.47
  HOMA-IR change from baseline, Mean (SD): −1.61
  HOMA-IR change from baseline, Median: −1.07
  HOMA-IR, Mean (SD): 2.28
  HOMA-IR, Median: 2.07
  HOMA-β change from baseline, ANCOVA LS mean (SE): 13.49
  HOMA-β change from baseline, Mean (SD): 13.46
  HOMA-β change from baseline, Median: 9.80
  HOMA-β, Mean (SD): 58.55
  HOMA-β, Median: 51.80
  Leptin change from baseline, ANCOVA LS mean (SE): -1.23 ng/mL
  Leptin change from baseline, Mean (SD): -1.20 ng/mL
  Leptin change from baseline, Median: -1.37 ng/mL
  Leptin, Mean (SD): 10.72 ng/mL
  Leptin, Median: 6.16 ng/mL
  UACR change from baseline, ANCOVA LS mean (SE): -12.95 g/kg
  UACR change from baseline, Mean (SD): -20.54 g/kg
  UACR change from baseline, Median: -1.75 g/kg
  UACR, Mean (SD): 37.26 g/kg
  UACR, Median: 11.60 g/kg
  UGCR change from baseline, ANCOVA LS mean (SE): 42.72 mg/mg
  UGCR change from baseline, Mean (SD): 41.06 mg/mg
  UGCR change from baseline, Median: 40.72 mg/mg
  UGCR, Mean (SD): 43.00 mg/mg
  UGCR, Median: 40.86 mg/mg
Week 18
  HDL-C change from baseline, ANCOVA LS mean (SE): 3.08(0.67) mg/dL
  HDL-C change from baseline, Mean (SD): 3.17(5.82) mg/dL
  HDL-C change from baseline, Median: 2.00 mg/dL
  HDL-C, Mean (SD): 49.93(9.16) mg/dL
  HDL-C, Median: 49.00 mg/dL
  LDL-C change from baseline, ANCOVA LS mean (SE): 2.58(1.89) mg/dL
  LDL-C change from baseline, Mean (SD): 3.27(20.01) mg/dL
  LDL-C change from baseline, Median: 3.00 mg/dL
  LDL-C, Mean (SD): 79.71(26.69) mg/dL
  LDL-C, Median: 80.00 mg/dL
  Triglycerides change from baseline, ANCOVA LS mean (SE): 1.88(6.04) mg/dL
  Triglycerides change from baseline, Mean (SD): −4.10(62.62) mg/dL
  Triglycerides change from baseline, Median: 1.00 mg/dL
  Triglycerides, Mean (SD): 130.88(70.92) mg/dL
  Triglycerides, Median: 110.00 mg/dL
  Diastolic blood pressure change from baseline, ANCOVA LS mean (SE): −4.10 mmHg
  Diastolic blood pressure change from baseline, Mean (SD): −3.94 mmHg
  Diastolic blood pressure change from baseline, Median: −2.50 mmHg
  Diastolic blood pressure, Mean (SD): 72.08 mmHg
  Diastolic blood pressure, Median: 71.00 mmHg
  Systolic blood pressure change from baseline, ANCOVA LS mean (SE): −5.97(1.15) mmHg
  Systolic blood pressure change from baseline, Mean (SD): −5.43(12.97) mmHg
  Systolic blood pressure change from baseline, Median: −5.00 mmHg
  Systolic blood pressure, Mean (SD): 122.27(12.91) mmHg
  Systolic blood pressure, Median: 122.00 mmHg
Week 24, PPS
  Adiponectin change from baseline, ANCOVA LS mean (SE): 1.69 µg/mL
  Adiponectin change from baseline, Mean (SD): 1.72 µg/mL
  Adiponectin change from baseline, Median: 1.06 ng/mL
  Adiponectin, Mean (SD): 8.35 µg/mL
  Adiponectin, Median: 7.19 µg/mL
  HOMA-IR change from baseline, ANCOVA LS mean (SE): −1.31
  HOMA-IR change from baseline, Mean (SD): −1.47
  HOMA-IR change from baseline, Median: −1.17
  HOMA-IR, Mean (SD): 2.39
